The source of these data is patent publication EP4471048A1, “PEPTIDE INHIBITORS OF INTERLEUKIN-23 RECEPTOR” (Zealand Pharma A/S, priority 2023, dated 2024).

Where a SMILES comes first, the peptide text is derived from it. Bridges are numbered along the chain shown (N, C = ends). [ ]: non-standard residue; d: D form. 2Nal = N[C@@H](Cc1ccc2ccccc2c1)C(=O)O; AEF = NCCOc1ccc(C[C@H](N)C(=O)O)cc1; 3Pal = N[C@@H](Cc1cccnc1)C(=O)O; αMeL = CC(C)C[C@](C)(N)C(=O)O; Dab = NCC[C@H](N)C(=O)O

Series [1] can be described thus: Peptide stability in simulated intestinal fluid (SIF). Type of series: in vitro ADME. The settings on record: 37 °C, porcine pancreatin; for remaining at 1 h, 10 µM / remaining at 4 h, 10 µM: pig; for remaining at 4 h, 10 µM / SIF (% remaining 4 h): pH 6.8, 4 h. On the procedure:
(§1) SGF was prepared by dissolving sodium chloride (0.2 g) in 50 mL of water. A volume of 0.7 mL of 10 M HCl was added to adjust the pH of the solution to 1.2 and the volume made up to 100 mL with water. […] SIF was prepared by dissolving monobasic potassium phosphate (0.68 g) in 50 mL of water and adjusting the pH to 6.8 with 1 M NaOH. The volume was subsequently made up to 100 mL with water. 200 mg porcine pancreatin (P1625, Sigma Aldrich) was gently dissolved into 20 mL preheated (37 °C) solution (10 g/L) immediately prior to the incubation.
(§2) The incubation was performed at 37 °C with gentle shaking. […] After the last timepoint, the sampling plate was mixed for 10 min on a shaking table and centrifuged 10 min at 2200 g. 70 µL resulting supernatant was diluted with 150 µL water, mixed and centrifugated before analysis by liquid chromatography high resolution mass spectrometry. […] Percent remaining at each timepoint was calculated relative to timepoint zero based on absolute peak areas.
Compounds with a SIF stability (after 4 h) above 70% are considered highly SIF stable.

Another series has as its target T1, human IL-23R (Homo sapiens, UniProt Q5VWK5).
T1 sequence (Q5VWK5 22-629): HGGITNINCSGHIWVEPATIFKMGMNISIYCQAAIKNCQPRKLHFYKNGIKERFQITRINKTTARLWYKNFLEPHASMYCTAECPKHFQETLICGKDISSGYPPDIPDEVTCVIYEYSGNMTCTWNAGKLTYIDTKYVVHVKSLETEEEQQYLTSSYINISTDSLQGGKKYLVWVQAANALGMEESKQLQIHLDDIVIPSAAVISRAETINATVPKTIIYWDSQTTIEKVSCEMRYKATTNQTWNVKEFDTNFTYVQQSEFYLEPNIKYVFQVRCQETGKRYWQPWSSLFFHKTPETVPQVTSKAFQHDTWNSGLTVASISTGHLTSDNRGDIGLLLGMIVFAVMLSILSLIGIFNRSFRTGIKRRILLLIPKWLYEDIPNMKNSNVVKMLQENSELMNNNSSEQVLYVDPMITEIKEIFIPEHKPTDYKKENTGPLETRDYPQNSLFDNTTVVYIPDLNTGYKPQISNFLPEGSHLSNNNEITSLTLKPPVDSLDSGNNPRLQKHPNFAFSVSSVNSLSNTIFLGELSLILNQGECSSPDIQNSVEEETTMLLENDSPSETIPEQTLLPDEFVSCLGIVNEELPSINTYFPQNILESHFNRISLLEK
The series is described as follows: biochemical. Particulars: for Emax: read-out: % displacement (hIL-23R NIuc). Put shortly:
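Membranes from HEK293 cells stably expressing Nluc-tagged human IL-23R were incubated 2 h at room temperature with test compound and a fluorophore-labelled tracer. After substrate addition, loss of BRET (TAMRA over luciferase emission) reported tracer displacement. A 4PL fit gave IC50 values.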

A short description of series [2]: Peptide stability in simulated gastric fluid (SGF). The class given is in vitro ADME. Particulars: 37 °C, porcine pepsin; for remaining at 1 h, 10 µM / remaining at 4 h, 10 µM: pig, simulated gastric fluid (SGF) with porcine pepsin (3.2 g/L), pH 1.2, 10 µM; for remaining at 1 h, 10 µM: read-out: SGF (% remaining 1 h); for remaining at 4 h, 10 µM: read-out: SGF (% remaining 4 h). On the procedure: as §1, §2
Compounds with a SGF stability (after 4 h) above 70% are considered highly SGF stable. […] Table 3-4: SGF data

[3] abbreviates: read-out: SIF (% remaining 4 h).
Setting [4] is: SAR tables, % peptide remaining, read-out: SIF (% after 4 h).

As to `COc1ccc(C[C@@H]2NC(=O)[C@@H]3CCC(=O)N[C@@H](CCCCNC(=O)CC[C@@H](C(=O)N[C@@H](CCCCNC(=O)c4cccnc4)C(N)=O)NC(=O)[C@](C)(CC(C)C)NC(=O)[C@H](Cc4ccc5ccccc5c4)NC2=O)C(=O)N[C@@H]([C@@H](C)O)C(=O)N[C@@H](C(C)C)C(=O)N[C@@H](Cc2c[nH]c4ccccc24)C(=O)N[C@@H](CCC(N)=O)C(=O)N3)cc1` [Compound 50, K(1c)(6c)^†TVWQE(6c)[Y(Me)][2-Nal][2-Me-Leu]E(1c)[K(nicotinate)]-[NH2]], the remaining at 1 h, 10 µM in series [1] (pH 6.8, 1 h) was 95%; in series [2] (pH 1.2, 1 h), 78%. Further, the remaining at 4 h, 10 µM in series [1] (setting [3]) was 81%; in series [2] (pH 1.2, 4 h), 8%. The “% displacement (hIL-23R NIuc)” value on human IL-23R amounted to 98%. At human IL-23R, this compound registered an IC50 of 320 nM.

Regarding `CC[C@H](C)[C@H]1CC(=O)N[C@@H](Cc2c[nH]c3ccccc23)C(=O)N[C@@H](CCC(N)=O)C(=O)N[C@H]2CCC(=O)N[C@@H](CCCCNC(=O)CC[C@@H](C(=O)N[C@@H](CCN)C(=O)N[C@@H](Cc3cccnc3)C(=O)NC)NC(=O)[C@](C)(CC(C)C)NC(=O)[C@H](Cc3ccc4ccccc4c3)NC(=O)[C@H](Cc3ccc(OCCN)cc3)NC2=O)C(=O)N1` [Compound 96, K(1c)(6c)^†[beta-hlle]WQE(6c)[Y(2-aminoethoxy)][2-Nal][2-Me-Leu]E(1c)[Dab][3-(3-Pyridyl)-Ala]-[NHMe]], the remaining at 1 h, 10 µM in series [1] (pH 6.8, 1 h) is 103%; in series [2] (pH 1.2, 1 h), 105%. The remaining at 4 h, 10 µM is 105% in series [1] (setting [3]) and 105% in series [2] (pH 1.2, 4 h). On human IL-23R, this compound came in with an IC50 of 0.03 nM. Also, the Emax at human IL-23R was found to be 91%.

As for `CNC(=O)[C@H](Cc1cccnc1)NC(=O)[C@H](CCN)NC(=O)[C@@H]1CCC(=O)NCCCC[C@@H]2NC(=O)CC[C@H](NC(=O)[C@H](CCC(N)=O)NC(=O)[C@H](Cc3c[nH]c4ccccc34)NC(=O)CCCNC2=O)C(=O)N[C@@H](Cc2ccc(OCCN)cc2)C(=O)N[C@@H](Cc2ccc3ccccc3c2)C(=O)N[C@@](C)(CC(C)C)C(=O)N1` [Compound 98, K(1c)(6c)^†[4-Aminobutanoyl]WQE(6c)[Y(2-aminoethoxy)][2-Nal][2-Me-Leu]E(1c)[Dab][3-(3-Pyridyl)-Ala]-[NHMe]], the remaining at 1 h, 10 µM in series [1] (pH 6.8, 1 h) was 88%; in series [2] (pH 1.2, 1 h) it was 101%. The remaining at 4 h, 10 µM in series [1] (setting [3]) was 58%; in series [2] (pH 1.2, 4 h), 96%. Moreover, at human IL-23R, the “% displacement (hIL-23R NIuc)” value was determined as 101%. This compound came in with an IC50 at human IL-23R of 0.024 nM.

In the case of `CNC(=O)[C@H](Cc1cccnc1)NC(=O)[C@H](CCN)NC(=O)[C@@H]1CCC(=O)NCCCC[C@@H]2NC(=O)CC[C@H](NC(=O)[C@H](CCC(N)=O)NC(=O)[C@H](Cc3c[nH]c4ccccc34)NC(=O)CCNC2=O)C(=O)N[C@@H](Cc2ccncc2)C(=O)N[C@@H](Cc2ccc3ccccc3c2)C(=O)N[C@@](C)(CC(C)C)C(=O)N1` [Compound 85, K(1c)(6c)^†[3-Aminopropanoyl]WQE(6c)[3-(4-Pyridyl)-Ala][2-Nal][2-Me-Leu]E(1c)[Dab][3-(3-Pyridyl)-Ala]-[NHMe]], the remaining at 1 h, 10 µM in series [1] (pH 6.8, 1 h) was 103%; in series [2] (pH 1.2, 1 h) it was 109%. Further, the remaining at 4 h, 10 µM was 85% in series [1] (setting [3]) and 110% in series [2] (pH 1.2, 4 h). Also, the IC50 against human IL-23R worked out at 0.17 nM. At human IL-23R, the Emax turned out to be 97%.

`CC[C@H](C)[C@@H]1NC(=O)[C@@H]2CCCCNC(=O)CC[C@@H](C(=O)NCCCCC(=O)N[C@@H](Cc3cccnc3)C(=O)NC)NC(=O)[C@](C)(CC(C)C)NC(=O)[C@H](Cc3ccc4ccccc4c3)NC(=O)[C@H](Cc3ccc(OCCN)cc3)NC(=O)[C@H](CCC(=O)N2)NC(=O)[C@H](CCC(N)=O)NC(=O)[C@H](Cc2c[nH]c3ccccc23)NC(=O)[C@H](C(C)C)NC1=O` [Compound 64, K(1c)(6c)^†IVWQE(6c)[Y(2-aminoethoxy)][2-Nal][2-Me-Leu]E(1c)[5-Aminopentanoyl][3-(3-Pyridyl)-Ala]-[NHMe]]: in series [1] (10 µM), the “SIF (% remaining 4 h)” value is recorded as 86%. For the same compound, the remaining at 1 h, 10 µM in series [1] (pH 6.8, 1 h) was 93%; in series [2] (pH 1.2, 1 h) it was 102%. Also, the remaining at 4 h, 10 µM in series [1] (setting [4]) was 86%; in series [2] (pH 1.2, 4 h), 90%. Also, inhibition at human IL-23R was half-maximal at 11 nM (IC50). Moreover, the Emax on human IL-23R turned out to be 99%.

For `CNC(=O)[C@H](Cc1cccnc1)NC(=O)[C@H](Cc1cccnc1)NC(=O)[C@@H]1CCC(=O)NCCCC[C@@H]2NC(=O)CC[C@H](NC(=O)[C@H](CCC(N)=O)NC(=O)[C@H](Cc3c[nH]c4ccccc34)NC(=O)CCNC2=O)C(=O)N[C@@H](Cc2ccc(OCCN)cc2)C(=O)N[C@@H](Cc2ccc3ccccc3c2)C(=O)N[C@@](C)(CC(C)C)C(=O)N1` [Compound 87, K(1c)(6c)^†[3-Aminopropanoyl]WQE(6c)[Y(2-aminoethoxy)][2-Nal][2-Me-Leu]E(1 c)[3-(3-Pyridyl)-Ala][3-(3-Pyridyl)-Ala]-[NHMe]], the remaining at 1 h, 10 µM in series [1] (pH 6.8, 1 h) was 1%; in series [2] (pH 1.2, 1 h), 87%. For the same compound, the remaining at 4 h, 10 µM in series [1] (setting [3]) is 1%; in series [2] (pH 1.2, 4 h), 89%. Moreover, the “% displacement (hIL-23R NIuc)” value at human IL-23R was determined as 103%. For the same compound, half-maximal inhibition against human IL-23R (IC50) was put at 0.039 nM.

On to `CNC(=O)[C@H](Cc1cccnc1)NC(=O)[C@H](CCN)NC(=O)[C@@H]1CCC(=O)NCCCC[C@@H]2NC(=O)CC[C@H](NC(=O)[C@H](CCC(N)=O)NC(=O)[C@H](Cc3c[nH]c4ccccc34)NC2=O)C(=O)N[C@@H](Cc2ccc(OCCN)cc2)C(=O)N[C@@H](Cc2ccc3ccccc3c2)C(=O)N[C@@](C)(CC(C)C)C(=O)N1` [Compound 43, K(1c)(6c)^†WQE(6c)[Y(2-aminoethoxy)][2-Nal][2-Me-Leu]E(1c)[Dab][3-(3-Pyridyl)-Ala]-[NHMe]] (KWQE[AEF][2Nal][αMeL]E[Dab][3Pal]-NHMe; lactam 1-8, N-4), for which the remaining at 1 h, 10 µM in series [1] (pH 6.8, 1 h) is 91%; in series [2] (pH 1.2, 1 h) it was 110%. Besides, the remaining at 4 h, 10 µM in series [1] (setting [4]) was 102%; in series [2] (pH 1.2, 4 h), 108%. At human IL-23R, half-maximal inhibition (IC50) was put at 80 nM. Besides, the Emax on human IL-23R was determined as 100%.

On to `CC[C@H](C)[C@@H]1NC(=O)[C@@H]2CCCCNC(=O)CC[C@@H](C(=O)NCCc3cccnc3)NC(=O)[C@](C)(C(C)C)NC(=O)[C@H](Cc3ccc4ccccc4c3)NC(=O)[C@H](Cc3ccc(OCCN)cc3)NC(=O)[C@H](CCC(=O)N2)NC(=O)[C@H](CCC(N)=O)NC(=O)[C@H](Cc2c[nH]c3ccccc23)NC(=O)[C@H](C(C)C)NC1=O` [Compound 26, K(1c)(6c)^†IVWQE(6c)[Y(2-aminoethoxy)][2-Nal][2-Me-Val]E(1c)-[NH-2-(pyridin-3-yl)ethyl]], for which the remaining at 1 h, 10 µM is 97% in series [1] (pH 6.8, 1 h) and 95% in series [2] (pH 1.2, 1 h). Also, the remaining at 4 h, 10 µM in series [1] (setting [3]) is 96%; in series [2] (pH 1.2, 4 h), 96%. Further, at human IL-23R, the “% displacement (hIL-23R NIuc)” value is reported as 101%. Besides, inhibition at human IL-23R was half-maximal at 320 nM (IC50).

With `CC(C)C[C@@H]1NC(=O)[C@H](Cc2c[nH]c3ccccc23)NC(=O)[C@H](Cc2c[nH]c3ccccc23)NC(=O)[C@@H]2CSCC(=O)CSC[C@H](NC(=O)[C@H](CO)NC(=O)[C@@H](NC(=O)[C@@H](N)CC(=O)O)CSCC(=O)CSC[C@@H](C(=O)N[C@@H](CCCNC(=N)N)C(N)=O)NC1=O)C(=O)N[C@@H](Cc1c[nH]c3ccccc13)C(=O)N[C@@H](CCC(N)=O)C(=O)N2` (single isomer, unassigned) [I3 (isomer 3), H-DC(1a)SC(2a)WQC(2a)WWLC(1a)R-[NH2], reference compound], the “SIF (% remaining 1 h)” value in series [1] (10 µM, pH 6.8, 1 h) is recorded as 0%. In addition, the “SIF (% remaining 4 h)” value in series [1] (10 µM) was 0%. Also, in series [2] (10 µM, pH 1.2, 1 h), the “SGF (% remaining 1 h)” value is listed as 5%. Also, in series [2] (10 µM, pH 1.2, 4 h), the “SGF (% remaining 4 h)” value is reported as 0%.
